Assay results as given in patent US20210317090A1, “AMINO ACID DEPLETION AGENTS AS ANTIPROLIFERATIVE AGENTS” (University of Central Florida Research Foundation, Inc., priority 2018, published 2021).

Columns and labels:
CHO-K1 cells = experiment: Rescue by exogenous native polyamines in CHO-K1 cells; type: cell-based, Chinese hamster; conditions: CHO-K1, toxic concentration of compound 10 (results not shown)
L3.6pl cells [1] = experiment: Ant-44 toxicity potentiation assay in L3.6pl cells; type: cell-based, human
Experimental: As performed previously with CHO K1 cells, L3.6pl cells were treated with compounds 9 (1666.177) and 10 (1666.255) and a fixed dose of Ant-44 to observe the potentiation effect. The 72 h IC50 dose of Ant-44 in L3.6pl cells was previously determined to be 4 μM. For this study, half that dose was used to replicate the large window used in the CHO experiments to look at reduction in cell viability. In a 96-well plate, L3.6pl cells were dosed with a fixed concentration of Ant-44 (2 μM) and increasing doses of compounds 9 (1666.177) and 10 (1666.255). Although both compounds were effective at reducing cell viability, higher doses were required compared to CHO K1 cells.
FIG. 6 is an example according to various embodiments, illustrating the ability of compounds 9 (1666.177) and 10 ([…]) to potentiate the effect of Ant-44 in L3.6pl cells. Cells were incubated for 72 h at 37° C. with the respective compound and Ant-44 (2 μM). A 250 μM AG solution was incubated with the cells for 24 h prior to addition of compounds. […] Both compounds are nontoxic at the second highest concentration tested (1 μM).

CHO-MG cells = experiment: Cytotoxicity IC50 (MTS) in polyamine-transport-deficient CHO-MG cells; type: cell-based, Chinese hamster; conditions: Cricetulus griseus, 48 h
Experimental: Regarding the biological studies performed in the following examples, it is noted that CHO K1, CHO-MG, and L3.6pl cells were grown in RPMI 1640 medium supplemented with 10% fetal bovine serum (FBS) and 1% penicillin/streptomycin. All cells were grown at 37° C. under a humidified 5% CO2 atmosphere. Aminoguanidine (1 mM used for CHO K1 and CHOMG cells and 250 μM for L3.6pl) was added to the growth medium to prevent oxidation of the compounds of the bovine serum amine oxidase enzyme that is present in calf serum. The cells used were in early to mid log phase and CHO and CHOMG were plated out at 1000 cells/well, whereas the L3.6pl cells were plated at 500 cells/well in a 96 well plate format.
This example illustrates aspects according to various embodiments pertaining to IC50 determinations and cell viability studies. Cell growth was assayed in sterile 96-well microtiter plates (Costar 3599, Corning, N.Y.). CHO K1 or CHOMG cells were plated at 1,000 cells/70 μL and L3.6pl cells at 500 cells/70 μL. […] After drug exposure (e.g., for 48 h for CHO K1 and CHO-MG and 48 h or 72 h for L3.6pl), cell growth was determined by measuring formazan formation from the 3-(4,5dimethylthiazol-2-yl)-5-(3-carboxymethoxyphenyl)-2-(4-sulfenyl)-2H tetrazolium, inner salt (MTS) using SynergyMx Biotek microplate reader for absorbance (490 nm) measurements.^27 All experiments were run in triplicate.

L3.6pl cells [2] = experiment: Intracellular leucine and methionine after cell lysis (LCMS); type: cell-based, human; conditions: 72 h
Experimental: This example illustrates aspects according to various embodiments pertaining to a 72 h experiment with Compound 10 in L3.6pl cells. Ten milliliters of a cell suspension containing L3.6pl human pancreatic cancer cells (50,000 cells/mL) and aminoguanidine ([…]) were placed in treated plastic Petri dishes (d=9 cm) and incubated overnight at 37° C. After 24 h, the cells were dosed with compound 10 at 2 μM, 5 μM, or 7 μM. (Note: Stock solutions of 10 at 2, 5, and 7 mM were dissolved in phosphate buffered saline (PBS) and were filtered through a 0.2 μm filter prior to use. The experiments were maintained with a total volume of 10.01 mL where 10 mL of the cell suspension was placed in a plastic dish and each compound or the equivalent PBS volume was added to make up the total volume 10.01 mL for each dish. For example, for the control experiment PBS (10 μL) was added to make up the total volume (10 mL+10 μL=10.01 mL). After 72 h incubation, the cells were collected first by pipetting off the supernatant containing floating dead cells from the culture dish as well as media and placing them into 15 mL tubes. The supernatant containing floating cells was centrifuged (4 min at 1,000 rpm). The cell-free supernatant (supernatant #1) was collected into a new 15 mL tube and quantified (˜8.6 mL) and was then stored frozen and was later quantified by LCMS to investigate the media composition of particular polyamine and amino acid analytes. The attached cells on the dish were washed with PBS (5 mL). The PBS wash was removed by suction and additional PBS (2 mL) was added and again suctioned off to provide twice-washed cells still adhered to the dish. Trypsin (2 mL) was then added to each dish and incubated (3-5 min) until all the cells were detached. Fresh media (8 mL) was added to quench the trypsin. The cell solutions were pipetted into separate 15 mL tubes and centrifuged (4 min at 1,000 rpm). The resulting supernatant was removed to provide a pellet. The pellet was suspended in PBS (10 mL) and was counted by a hemocytometer to provide cell counts for each experimental condition. The pellet was then centrifuged (4 min at 1,000 rpm) and the supernatant removed and the remaining pellet was quantified via protein and polyamine analysis.
To each cell pellet, a perchloric acid (100 μL) buffer solution (0.2M HClO4/1 M NaCl) and 0.9% NaCl (50 μL) was added. The samples were sonicated via sonic dismembranator in small bursts until samples were homogenized and cloudy. Additional perchloric acid (50 μL) buffer solution was added. The homogenized samples were then vortexed and centrifuged (10 min at 4,000 rpm). The supernatants of the respective samples (supernatant #2) were removed and quantified by calibrated pipet (˜190 μL volume). Note: 100 μL of supernatant #2 was placed into a micro-centrifuge tube for polyamine analysis by the N-dansylation HPLC protocol and the rest was placed into a different micro-centrifuge tube for analysis by LCMS of specific amino acid analytes. The respective supernatants were stored in the freezer for polyamine and LCMS quantification and the remaining protein pellet was used for the protein analysis. The protein pellet was dissolved in aq. NaOH (1 mM, 200 μL). The sample stood at room temperature with occasional vortex (45 min) and was then centrifuged (15 min at 15,000 rpm). The supernatant was collected and dissolved protein was quantified using the commercial Pierce BCA kit according to manufacturer's protocol.
This example illustrates aspects according to various embodiments pertaining to an LCMS Analysis. […]

SMILES: CC(C)CCN1CCN(C(CNCc2ccccc2)CC2CCCCC2)CC1CC(C)C.Cl.Cl.Cl (stereo not shown) [Compound 10, Benzyl-{3-cyclohexyl-2-[3-isobutyl-4-(3-methyl-butyl)-piperazin-1-yl]-propyl}-amine trihydrochloride salt]
- rescue of treated cells by native polyamines (CHO-K1 cells): unable to rescue
- effectiveness at increasing the potency of Ant-44 relative to compound 9 (L3.6pl cells [1]): approximately eleven times more effective
- EC50 (L3.6pl cells [1]; Homo sapiens, Ant-44 2 μM, 72 h): 0.29 ± 0.1 µM
- IC50 (CHO-MG cells): 8.93 ± 0.75 µM
- Intracellular level Leucine (L3.6pl cells [2]; 2 μM): 152 ± 8 pmol/mg protein
- Intracellular level Methionine (L3.6pl cells [2]; 2 μM): 226 ± 21 pmol/mg protein
- Intracellular level Leucine (L3.6pl cells [2]; 5 μM): 94 ± 3 pmol/mg protein
- Intracellular level Methionine (L3.6pl cells [2]; 5 μM): 41 ± 23 pmol/mg protein
- Intracellular level Leucine (L3.6pl cells [2]; 7 μM): 77 ± 1 pmol/mg protein
- Intracellular level Methionine (L3.6pl cells [2]; 7 μM): Not detected
